{
  "source": "patent US9278992B2",
  "about": "“Function-selective vitamin D receptor agonist” (Nihon University, priority 2007, dated 2016)",
  "key": {"[1]": {"system": "Human myeloid leukemia HL60 cells", "test": "Differentiation of myeloid leukemia HL60 cells (Nitro blue tetrazolium-reducing activity)", "format": "cell-based", "conditions": "for induction of differentiation marker (Nitro blue tetrazolium-reducing activity), HL60 cells: 3 days"}, "[2]": {"test": "Example 5: intraperitoneal administration to mice, body weight and plasma calcium", "format": "in vivo", "conditions": "0.7 mmol/kg", "description": "[…]. […] […]. Blood was collected by heart puncture on day 8 and tissue mRNAs on day 8 were examined."}, "[3]": {"test": "Example 5: oral administration to mice, body weight and plasma calcium", "conditions": "oral (gavage), 1 mmol/kg", "description": "Blood was collected from the tail on days 0, 2, 4, 6, and 8, and by heart puncture on day 12. Tissue mRNAs on day 12 were examined. * indicates p<0.05; ** indicates p<0.01; *** indicates p<0.001, compared with vehicle control.\n(§1) Next, the in vivo effects of orally administered lithocholic acid derivatives (dissolved in corn oil) were examined."}, "VDR [4]": {"target": "T1, VDR (Homo sapiens, UniProt P11473)", "T1 sequence (P11473 1-427)": "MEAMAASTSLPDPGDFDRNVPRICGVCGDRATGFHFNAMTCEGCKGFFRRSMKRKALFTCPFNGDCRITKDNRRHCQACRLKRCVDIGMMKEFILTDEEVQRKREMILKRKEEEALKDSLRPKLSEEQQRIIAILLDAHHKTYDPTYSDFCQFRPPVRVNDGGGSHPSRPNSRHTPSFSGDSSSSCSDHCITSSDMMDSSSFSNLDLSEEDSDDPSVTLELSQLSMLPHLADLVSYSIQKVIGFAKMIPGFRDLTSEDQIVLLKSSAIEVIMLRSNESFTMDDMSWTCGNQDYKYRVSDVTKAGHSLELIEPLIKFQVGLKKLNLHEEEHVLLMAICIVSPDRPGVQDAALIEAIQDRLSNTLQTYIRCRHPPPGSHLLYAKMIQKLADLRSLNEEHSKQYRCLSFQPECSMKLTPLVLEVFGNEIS", "conditions": "Non-Patent Documents 2 and 3; cited from earlier work"}, "[5]": {"target": "T2, farnesoid X receptor (FXR) (Homo sapiens, UniProt Q96RI1)", "T2 sequence (Q96RI1 1-486)": "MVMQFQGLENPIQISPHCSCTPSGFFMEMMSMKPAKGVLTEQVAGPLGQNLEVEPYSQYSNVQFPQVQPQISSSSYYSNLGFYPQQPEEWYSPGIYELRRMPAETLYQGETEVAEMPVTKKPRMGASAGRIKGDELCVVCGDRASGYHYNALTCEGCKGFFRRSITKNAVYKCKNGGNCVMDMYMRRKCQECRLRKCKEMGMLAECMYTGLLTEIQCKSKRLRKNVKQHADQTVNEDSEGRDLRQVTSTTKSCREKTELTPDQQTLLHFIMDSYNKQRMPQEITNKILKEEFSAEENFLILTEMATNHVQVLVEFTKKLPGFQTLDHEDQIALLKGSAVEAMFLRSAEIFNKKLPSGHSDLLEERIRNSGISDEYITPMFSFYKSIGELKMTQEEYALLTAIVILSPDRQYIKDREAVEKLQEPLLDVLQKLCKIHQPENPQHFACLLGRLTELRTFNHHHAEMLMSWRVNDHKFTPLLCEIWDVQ", "conditions": "Non-Patent Documents 3 and 4; cited from earlier work"}, "leukemic cells": {"system": "leukemic cells", "conditions": "cited from earlier work"}, "U937 cells": {"system": "U937 cells", "test": "Differentiation markers of myeloid leukemia U937 cells", "format": "cell-based"}, "VDR [6]": {"target": "T3, VDR (Homo sapiens, UniProt P11473)", "T3 sequence (P11473 127-423 limits assumed)": "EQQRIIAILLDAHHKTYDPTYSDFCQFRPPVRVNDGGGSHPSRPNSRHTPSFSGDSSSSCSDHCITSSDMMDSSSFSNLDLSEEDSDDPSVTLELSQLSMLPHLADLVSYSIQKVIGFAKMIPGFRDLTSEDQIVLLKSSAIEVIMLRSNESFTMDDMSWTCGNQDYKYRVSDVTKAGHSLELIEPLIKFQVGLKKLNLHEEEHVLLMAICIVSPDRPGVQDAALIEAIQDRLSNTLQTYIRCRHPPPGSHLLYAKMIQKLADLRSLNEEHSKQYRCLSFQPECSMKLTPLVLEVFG", "test": "VDR activation, GAL4-VDR luciferase reporter in HEK293 cells", "conditions": "compared with lithocholic acid and lithocholic acid acetate", "procedure": "Cells were solubilized 16 to 18 hours later, and evaluated for the luciferase activity."}, "VDR target gene CYP24": {"system": "VDR target gene CYP24", "test": "Example 3: mice injected intraperitoneally, expression of VDR target gene CYP24 in kidney", "format": "in vivo", "conditions": "intraperitoneal, every other day, day 8"}, "[7]": {"target": "T4, G protein-coupled bile acid receptor 1 (GPBAR1) (Homo sapiens, UniProt Q8TDU6)", "T4 sequence (Q8TDU6 1-330)": "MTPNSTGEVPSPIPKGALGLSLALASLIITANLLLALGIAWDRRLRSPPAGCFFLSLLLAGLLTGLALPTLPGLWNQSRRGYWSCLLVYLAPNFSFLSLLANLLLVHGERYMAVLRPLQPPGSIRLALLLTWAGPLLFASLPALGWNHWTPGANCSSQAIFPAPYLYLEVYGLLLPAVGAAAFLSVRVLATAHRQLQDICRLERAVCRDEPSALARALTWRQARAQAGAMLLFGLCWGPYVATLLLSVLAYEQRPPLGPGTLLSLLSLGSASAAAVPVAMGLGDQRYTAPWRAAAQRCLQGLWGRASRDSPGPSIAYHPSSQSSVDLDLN", "test": "Effect on GPBAR1 (FIG. 1)", "conditions": "10 μM"}, "[8]": {"system": "Cyp24a1, calbindin D9k, Trpv6, Trpv5", "test": "Example 5: oral administration to mice, mRNA expression in kidney and intestinal mucosa", "format": "in vivo", "description": "Blood was collected from the tail on days 0, 2, 4, 6, and 8, and by heart puncture on day 12. […]\nas §1"}, "[9]": {"target": "T2, farnesoid X receptor (FXR)", "test": "Effect on FXR (FIG. 1)", "conditions": "18 μM"}, "[10]": {"system": "Cyp24a1, calbindin D9k, Trpv6, Trpv5", "test": "Example 5: intraperitoneal administration to mice, mRNA expression in kidney and intestinal mucosa", "format": "in vivo", "conditions": "day 8", "description": "Blood was collected by heart puncture on day 8 and tissue mRNAs on day 8 were examined."}, "[11]": {"test": "Example 3: mice injected intraperitoneally, body weight and plasma calcium", "conditions": "mouse, in vivo, ip"}, "myeloid leukemia cells": {"system": "myeloid leukemia cells", "conditions": "compared with 1,25(OH)2D3; Honma et al. 1983; cited from earlier work"}, "[12]": {"conditions": "Honma et al. 1983; cited from earlier work"}},
  "note": "“Also recorded” adds a separate entry of the source.",
  "data": [
    {"molecule": "lithocholic acid acetate", "values": [
      {"measurement": "induction of differentiation marker (Nitro blue tetrazolium-reducing activity), HL60 cells", "setting": "[1]; 10 μM", "value": "weakly"},
      {"measurement": "induction of differentiation marker (Nitro blue tetrazolium-reducing activity), HL60 cells", "setting": "[1]; 30 μM", "value": "effectively"},
      {"measurement": "body weight", "setting": "[2]", "value": "did not decrease their body weight"},
      {"measurement": "body weight", "setting": "[3]", "value": "did not affect the body weight or plasma calcium"},
      {"measurement": "plasma calcium", "setting": "[3]", "value": "did not affect the body weight or plasma calcium"},
      {"measurement": "function and potency as VDR ligand", "setting": "VDR [4]", "value": "activated VDR more potently than lithocholic acid; also recorded: more potency on VDR than lithocholic acid"},
      {"measurement": "activity on FXR", "setting": "[5]", "value": "weaker than that of chenodeoxycholic acid and comparable to that of lithocholic acid"},
      {"measurement": "differentiation of leukemic cells", "setting": "leukemic cells", "value": "induced the differentiation of leukemic cells"}
    ]},
    {"molecule": "CCC(=O)O[C@@H]1CC[C@@]2(C)[C@H](CC[C@@H]3[C@@H]2CC[C@]2(C)[C@@H]([C@H](C)CCC(=O)O)CC[C@@H]32)C1", "note": "[lithocholic acid propionate]", "values": [
      {"measurement": "induction of differentiation markers, U937 cells", "setting": "U937 cells", "value": "induced the differentiation markers"},
      {"measurement": "selectivity as VDR ligand (VDR versus FXR and GPBAR1)", "setting": "VDR [6]", "value": "more selective VDR ligand (activating agent) than lithocholic acid and lithocholic acid acetate"},
      {"measurement": "expression of the VDR target gene CYP24 in kidney", "setting": "VDR target gene CYP24", "value": "induced the expression of the VDR target gene in the organ"},
      {"measurement": "effects on GPBAR1", "setting": "[7]", "value": "extremely weak effects"},
      {"measurement": "kidney Cyp24a1 expression", "setting": "[8]; oral (gavage), 0.7 mmol/kg and 1 mmol/kg, day 12", "value": "induced the kidney Cyp24a1 expression as effectively as 1α(OH)D3"},
      {"measurement": "kidney calbindin D9k expression", "setting": "[8]; oral (gavage), day 12", "value": "not induced"},
      {"measurement": "induction of differentiation markers, HL-60 cells", "setting": "[1]", "value": "induced the differentiation markers"},
      {"measurement": "induction of differentiation marker (Nitro blue tetrazolium-reducing activity), HL60 cells", "setting": "[1]; 10 μM", "value": "weakly"},
      {"measurement": "induction of differentiation marker (Nitro blue tetrazolium-reducing activity), HL60 cells", "setting": "[1]; 30 μM", "value": "effectively"},
      {"measurement": "potency on FXR", "setting": "[9]", "value": "extremely weak potency on FXR"},
      {"measurement": "intestinal mucosa target gene expression", "setting": "[10]; 0.7 mmol/kg", "value": "not effective in inducing intestinal mucosa target gene expression"},
      {"measurement": "kidney Cyp24a1 expression", "setting": "[10]; 0.7 mmol/kg", "value": "induced the expression of kidney Cyp24a1 as effectively as 1α(OH)D3"},
      {"measurement": "body weight of mice", "setting": "[11]", "value": "did not adversely affect the body weight or the blood calcium level"}
    ]},
    {"molecule": "C=C1/C(=C\\C=C2/CCC[C@]3(C)[C@@H]([C@H](C)CCCC(C)C)CC[C@@H]23)C[C@@H](O)C[C@@H]1O", "note": "[1α-hydroxyvitamin D3]", "values": [
      {"measurement": "survival time of the mice inoculated with leukemia cells", "setting": "myeloid leukemia cells", "value": "more effective than 1,25(OH)2D3 in increasing the survival time"},
      {"measurement": "intestinal mucosa Cyp24a1 expression", "setting": "[8]; 1 day single oral dose (data not shown)", "value": "not observed"},
      {"measurement": "intestinal mucosa Cyp24a1 expression", "setting": "[8]; 10 day oral administration, 12.5 nmol/kg", "value": "not increased"},
      {"measurement": "conversion to 1,25-dihydroxyvitamin D3 after injection", "setting": "[12]", "value": "rapidly converted to 1,25-dihydroxyvitamin D3"},
      {"measurement": "intestinal mucosa Cyp24a1 expression", "setting": "[10]; 12.5 nmol/kg", "value": "induced the intestinal mucosa Cyp24a1 expression"},
      {"measurement": "kidney Cyp24a1 expression", "setting": "[10]; 12.5 nmol/kg", "value": "effectively induced the expression"},
      {"measurement": "kidney Trpv5 expression", "setting": "[10]; 12.5 nmol/kg", "value": "effectively induced the expression"},
      {"measurement": "kidney Trpv6 expression", "setting": "[10]; 12.5 nmol/kg", "value": "effectively induced the expression"},
      {"measurement": "kidney calbindin D9k expression", "setting": "[10]; 12.5 nmol/kg", "value": "effectively induced the expression"},
      {"measurement": "body weight of mice", "setting": "[11]", "value": "decreased the body weight of mice"}
    ]}
  ]
}
